Results: PMC3416681, “The orthosteric agonist 2-chloro-5-hydroxyphenylglycine activates mGluR5 and mGluR1 with similar efficacy and potency” (2012)

Columns and labels:
[1] = molecular target: T1, mGluR5b (Rattus norvegicus, UniProt P31424); experiment: whole-cell patch clamp, calcium current inhibition in SCG neurons expressing the receptor; assay type: cell-based
T1 construct: gene Grm5; splice variant mGluR5b

[2] = molecular target: T2, mGluR1a (Rattus norvegicus, UniProt P23385); experiment: as above; assay type: cell-based
T2 construct: gene Grm1; splice variant mGluR1a (untagged and N-terminally myc-tagged, data combined)
T2 sequence (P23385 19-1199): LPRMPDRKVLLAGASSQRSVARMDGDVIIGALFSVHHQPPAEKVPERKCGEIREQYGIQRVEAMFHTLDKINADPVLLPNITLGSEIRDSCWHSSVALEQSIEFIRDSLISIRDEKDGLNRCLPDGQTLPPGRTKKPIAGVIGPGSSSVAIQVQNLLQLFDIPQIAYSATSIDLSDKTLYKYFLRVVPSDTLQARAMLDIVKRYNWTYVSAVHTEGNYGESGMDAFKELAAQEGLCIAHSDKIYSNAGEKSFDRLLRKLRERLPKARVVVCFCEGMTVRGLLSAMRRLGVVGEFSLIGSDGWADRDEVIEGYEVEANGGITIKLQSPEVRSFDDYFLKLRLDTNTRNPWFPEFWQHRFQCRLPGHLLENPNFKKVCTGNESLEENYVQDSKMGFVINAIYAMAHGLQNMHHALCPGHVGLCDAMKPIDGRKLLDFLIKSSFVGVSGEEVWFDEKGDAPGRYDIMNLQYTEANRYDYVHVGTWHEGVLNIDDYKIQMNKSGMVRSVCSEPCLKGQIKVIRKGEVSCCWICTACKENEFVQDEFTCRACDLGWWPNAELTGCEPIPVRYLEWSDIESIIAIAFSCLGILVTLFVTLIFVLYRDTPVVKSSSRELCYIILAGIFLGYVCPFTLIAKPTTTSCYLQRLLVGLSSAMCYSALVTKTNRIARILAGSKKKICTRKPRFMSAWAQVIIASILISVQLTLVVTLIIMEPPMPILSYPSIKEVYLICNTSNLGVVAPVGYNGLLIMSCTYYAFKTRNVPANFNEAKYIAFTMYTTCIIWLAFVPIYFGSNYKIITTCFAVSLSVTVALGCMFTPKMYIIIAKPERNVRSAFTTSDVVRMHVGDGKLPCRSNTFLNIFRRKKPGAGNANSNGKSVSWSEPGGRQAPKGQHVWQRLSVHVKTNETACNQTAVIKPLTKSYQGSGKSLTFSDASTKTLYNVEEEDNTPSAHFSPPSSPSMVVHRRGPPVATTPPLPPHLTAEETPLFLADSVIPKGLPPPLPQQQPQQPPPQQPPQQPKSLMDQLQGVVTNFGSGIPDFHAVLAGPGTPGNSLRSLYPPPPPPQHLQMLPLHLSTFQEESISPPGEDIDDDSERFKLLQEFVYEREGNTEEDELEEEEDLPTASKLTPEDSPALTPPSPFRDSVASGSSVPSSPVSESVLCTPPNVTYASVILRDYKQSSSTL

T1 sequence (P31424 21-1203): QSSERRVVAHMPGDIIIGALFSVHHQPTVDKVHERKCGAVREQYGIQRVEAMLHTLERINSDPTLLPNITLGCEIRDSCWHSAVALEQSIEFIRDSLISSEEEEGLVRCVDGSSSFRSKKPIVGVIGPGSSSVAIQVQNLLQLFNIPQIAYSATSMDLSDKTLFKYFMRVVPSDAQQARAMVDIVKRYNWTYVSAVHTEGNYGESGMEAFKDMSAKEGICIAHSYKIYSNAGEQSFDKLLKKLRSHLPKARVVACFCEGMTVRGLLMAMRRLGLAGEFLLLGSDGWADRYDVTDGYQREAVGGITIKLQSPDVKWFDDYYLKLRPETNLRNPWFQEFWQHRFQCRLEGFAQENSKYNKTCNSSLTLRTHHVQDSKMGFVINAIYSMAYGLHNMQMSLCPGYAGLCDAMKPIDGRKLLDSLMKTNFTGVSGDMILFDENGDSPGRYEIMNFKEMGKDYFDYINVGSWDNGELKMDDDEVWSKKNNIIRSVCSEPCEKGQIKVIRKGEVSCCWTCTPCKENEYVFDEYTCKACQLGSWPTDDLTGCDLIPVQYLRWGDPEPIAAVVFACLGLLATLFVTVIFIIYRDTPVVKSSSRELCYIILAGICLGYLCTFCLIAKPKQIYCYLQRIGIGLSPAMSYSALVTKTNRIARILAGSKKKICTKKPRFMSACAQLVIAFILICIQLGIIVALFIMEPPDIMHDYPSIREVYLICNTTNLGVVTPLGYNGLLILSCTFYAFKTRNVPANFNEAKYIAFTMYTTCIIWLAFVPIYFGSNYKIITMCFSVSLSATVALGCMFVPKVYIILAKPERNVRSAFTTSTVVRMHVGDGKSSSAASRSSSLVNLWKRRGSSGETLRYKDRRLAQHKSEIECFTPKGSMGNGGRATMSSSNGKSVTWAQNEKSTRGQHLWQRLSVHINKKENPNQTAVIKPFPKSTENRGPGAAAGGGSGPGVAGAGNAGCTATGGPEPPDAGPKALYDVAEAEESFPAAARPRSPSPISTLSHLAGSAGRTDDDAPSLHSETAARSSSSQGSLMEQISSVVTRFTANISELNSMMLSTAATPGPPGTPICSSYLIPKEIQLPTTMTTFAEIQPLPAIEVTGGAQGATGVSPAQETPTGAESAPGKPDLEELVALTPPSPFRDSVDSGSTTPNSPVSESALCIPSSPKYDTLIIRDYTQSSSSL

EC50 [1]: 57 µM | EC50 [2]: 80 µM
Compound: NC(C(=O)O)c1cc(O)ccc1Cl (racemic) [CHPG, 2-Chloro-5-hydroxyphenylglycine]
